Measurements as given in patent US20180280377A1, “Imidazo[4,5-c]quinolin-2-one Compounds and Their Use in Treating Cancer” (ASTRAZENECA AB, priority 2015, published 2018).

Experiments:
ATR = target: T1, ATR (Homo sapiens, UniProt Q13535); assay: ATR cellular potency assay (pChk1 Ser345 in HT29 cells after 4NQO); assay type: cell-based; conditions: pChk1 (Ser 345); Table 2; read-out: Assay b) ATR Cell IC50
T1 construct: endogenous in cells; host or cells: HT29 cells (ECACC #85061109)

ATM = target: T2, ATM (Homo sapiens, UniProt Q13315); assay: ATM cellular potency assay (pATM Ser1981 in irradiated HT29 cells); assay type: cell-based; conditions: 1 h compound, X-ray irradiation, pATM (Ser1981); Table 2; read-out: Assay a) ATM Cell IC50
T2 construct: endogenous in cells; host or cells: HT29 cells (ECACC #85061109)

T1 sequence (Q13535 whole entry): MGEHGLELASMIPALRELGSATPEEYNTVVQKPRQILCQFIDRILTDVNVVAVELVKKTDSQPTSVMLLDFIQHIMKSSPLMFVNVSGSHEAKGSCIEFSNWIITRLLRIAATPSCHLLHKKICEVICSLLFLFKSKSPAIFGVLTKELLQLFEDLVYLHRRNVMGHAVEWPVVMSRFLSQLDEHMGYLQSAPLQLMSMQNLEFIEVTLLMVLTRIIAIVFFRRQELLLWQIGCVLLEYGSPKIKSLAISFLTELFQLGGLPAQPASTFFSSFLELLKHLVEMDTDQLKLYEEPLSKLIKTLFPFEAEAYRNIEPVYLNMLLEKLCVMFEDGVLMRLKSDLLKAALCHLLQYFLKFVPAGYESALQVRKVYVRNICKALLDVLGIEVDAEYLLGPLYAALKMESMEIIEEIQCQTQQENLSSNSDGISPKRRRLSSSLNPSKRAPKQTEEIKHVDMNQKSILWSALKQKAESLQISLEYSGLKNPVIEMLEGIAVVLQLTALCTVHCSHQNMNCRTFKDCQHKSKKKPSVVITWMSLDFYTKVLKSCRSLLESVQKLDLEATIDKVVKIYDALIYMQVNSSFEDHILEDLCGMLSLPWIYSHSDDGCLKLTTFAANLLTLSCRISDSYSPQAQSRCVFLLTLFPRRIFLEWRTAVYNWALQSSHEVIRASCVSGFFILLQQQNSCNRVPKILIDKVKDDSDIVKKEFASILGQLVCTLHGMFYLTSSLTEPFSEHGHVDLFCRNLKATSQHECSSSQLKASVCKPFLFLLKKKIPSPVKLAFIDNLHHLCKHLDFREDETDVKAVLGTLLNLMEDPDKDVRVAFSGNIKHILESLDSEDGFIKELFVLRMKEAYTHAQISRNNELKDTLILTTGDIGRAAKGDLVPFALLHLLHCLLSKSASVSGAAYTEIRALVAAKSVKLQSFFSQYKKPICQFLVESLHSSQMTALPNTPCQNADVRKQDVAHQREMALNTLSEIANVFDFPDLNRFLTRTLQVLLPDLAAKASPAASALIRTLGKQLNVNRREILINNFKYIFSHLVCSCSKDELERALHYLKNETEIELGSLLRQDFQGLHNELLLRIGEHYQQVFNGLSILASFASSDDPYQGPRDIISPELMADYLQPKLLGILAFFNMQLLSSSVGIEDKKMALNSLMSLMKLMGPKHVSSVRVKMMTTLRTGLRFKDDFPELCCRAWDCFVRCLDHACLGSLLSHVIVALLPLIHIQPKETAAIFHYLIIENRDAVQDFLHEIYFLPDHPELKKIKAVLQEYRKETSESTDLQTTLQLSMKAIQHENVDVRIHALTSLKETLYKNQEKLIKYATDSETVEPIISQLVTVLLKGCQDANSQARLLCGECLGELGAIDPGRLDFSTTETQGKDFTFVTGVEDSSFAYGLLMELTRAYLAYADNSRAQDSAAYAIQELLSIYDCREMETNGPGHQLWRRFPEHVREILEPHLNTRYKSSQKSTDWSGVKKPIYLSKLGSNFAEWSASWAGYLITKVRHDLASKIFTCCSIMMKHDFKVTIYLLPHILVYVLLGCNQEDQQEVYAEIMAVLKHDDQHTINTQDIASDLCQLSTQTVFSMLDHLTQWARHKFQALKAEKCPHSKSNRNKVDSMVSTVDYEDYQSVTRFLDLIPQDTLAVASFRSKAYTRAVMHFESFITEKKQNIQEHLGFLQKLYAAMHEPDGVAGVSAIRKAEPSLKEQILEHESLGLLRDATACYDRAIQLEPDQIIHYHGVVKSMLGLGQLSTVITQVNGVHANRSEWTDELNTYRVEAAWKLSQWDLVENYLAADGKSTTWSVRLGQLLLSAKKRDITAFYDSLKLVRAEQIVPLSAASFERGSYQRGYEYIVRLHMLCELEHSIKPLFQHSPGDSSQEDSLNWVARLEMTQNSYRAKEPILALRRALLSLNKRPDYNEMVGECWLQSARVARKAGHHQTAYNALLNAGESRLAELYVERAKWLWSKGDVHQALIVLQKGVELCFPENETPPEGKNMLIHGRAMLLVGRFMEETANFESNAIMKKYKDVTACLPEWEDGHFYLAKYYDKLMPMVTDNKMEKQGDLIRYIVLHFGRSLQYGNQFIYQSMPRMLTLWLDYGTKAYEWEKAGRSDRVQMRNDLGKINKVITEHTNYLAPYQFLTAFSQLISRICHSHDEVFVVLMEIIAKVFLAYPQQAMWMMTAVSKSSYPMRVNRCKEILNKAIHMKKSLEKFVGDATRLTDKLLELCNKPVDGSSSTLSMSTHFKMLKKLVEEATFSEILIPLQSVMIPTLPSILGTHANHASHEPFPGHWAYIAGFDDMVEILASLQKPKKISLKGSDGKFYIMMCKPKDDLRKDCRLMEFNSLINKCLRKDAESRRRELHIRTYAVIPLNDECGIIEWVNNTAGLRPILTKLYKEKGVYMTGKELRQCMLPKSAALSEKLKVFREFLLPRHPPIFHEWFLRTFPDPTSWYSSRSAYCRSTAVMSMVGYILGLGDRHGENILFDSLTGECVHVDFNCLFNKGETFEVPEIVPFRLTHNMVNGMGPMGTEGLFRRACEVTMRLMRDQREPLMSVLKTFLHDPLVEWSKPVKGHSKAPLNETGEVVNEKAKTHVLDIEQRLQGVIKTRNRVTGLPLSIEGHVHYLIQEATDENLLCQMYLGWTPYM
T1 sequence (Q8WXE1 whole entry partner): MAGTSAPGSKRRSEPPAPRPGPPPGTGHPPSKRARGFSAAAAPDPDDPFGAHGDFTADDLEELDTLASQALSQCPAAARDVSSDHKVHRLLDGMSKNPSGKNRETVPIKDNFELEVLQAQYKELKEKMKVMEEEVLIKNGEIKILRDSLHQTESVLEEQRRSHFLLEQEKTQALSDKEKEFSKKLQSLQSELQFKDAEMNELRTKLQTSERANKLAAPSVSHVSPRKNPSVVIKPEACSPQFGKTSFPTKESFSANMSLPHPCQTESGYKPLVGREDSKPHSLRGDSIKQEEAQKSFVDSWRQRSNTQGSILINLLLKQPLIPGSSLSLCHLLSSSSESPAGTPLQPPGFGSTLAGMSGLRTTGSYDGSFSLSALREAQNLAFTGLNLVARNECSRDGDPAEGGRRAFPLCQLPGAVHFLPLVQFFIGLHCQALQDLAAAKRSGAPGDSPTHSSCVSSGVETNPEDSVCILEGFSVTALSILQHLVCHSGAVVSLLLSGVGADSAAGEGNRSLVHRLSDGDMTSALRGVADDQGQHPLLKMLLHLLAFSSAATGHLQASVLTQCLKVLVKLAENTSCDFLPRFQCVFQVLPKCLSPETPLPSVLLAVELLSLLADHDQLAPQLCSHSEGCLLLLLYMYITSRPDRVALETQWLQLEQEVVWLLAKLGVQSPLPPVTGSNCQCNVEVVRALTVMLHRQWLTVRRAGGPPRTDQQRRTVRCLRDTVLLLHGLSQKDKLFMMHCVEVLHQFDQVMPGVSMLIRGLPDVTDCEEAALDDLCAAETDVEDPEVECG

Row | SMILES | IC50 (ATR) | IC50 (ATM)
1 | CNC1CCN(c2ccc(-c3cc4c(cc3F)ncc3c4n([C@H]4C[C@@H](OC)C4)c(=O)n3C)cn2)CC1 [Example 57, 7-Fluoro-1-(cis-3-methoxycyclobutyl)-3-methyl-8-[6-[4-(methylamino)-1-piperidyl]-3-pyridyl]imidazo[4,5-c]quinolin-2-one] | > 30000 nM | 1.16 nM
2 | CO[C@H]1C[C@@H](n2c(=O)n(C)c3cnc4ccc(-c5ccc(N6CCC(N(C)C)CC6)nc5)cc4c32)C1 [Example 36, 8-[6-[4-(dimethylamino)-1-piperidyl]-3-pyridyl]-1-(cis-3-methoxycyclobutyl)-3-methyl-imidazo[4,5-c]quinolin-2-one] | > 30000 nM | 0.357 nM
3 | CO[C@H]1CC[C@H](n2c(=O)n(C)c3cnc4ccc(-c5ccc(N6CCC(N(C)C)CC6)nc5)cc4c32)C1 (single isomer, unassigned) [Example 32, 8-[6-[4-(dimethylamino)-1-piperidyl]-3-pyridyl]-1-[trans-3-methoxycyclopentyl]-3-methyl-imidazo[4,5-c]quinolin-2-one] | > 30000 nM | 0.307 nM
4 | CO[C@H]1C[C@@H](n2c(=O)n(C)c3cnc4cc(F)c(-c5ccc(N6CC(N(C)C)C6)nc5)cc4c32)C1 [Example 31, 8-[6-[3-(dimethylamino)azetidin-1-yl]-3-pyridyl]-7-fluoro-1-(cis-3-methoxycyclobutyl)-3-methyl-imidazo[4,5-c]quinolin-2-one] | > 30000 nM | 33.8 nM
5 | CN(C)[C@H]1CCN(c2ccc(-c3cc4c(cc3F)ncc3c4n([C@H]4CCCOC4)c(=O)n3C)cn2)C1 [Example 20] | > 30000 nM | 36.5 nM
6 | CNC1CCN(c2ccc(-c3ccc4ncc5c(c4c3)n([C@H]3C[C@@H](OC)C3)c(=O)n5C)cn2)CC1 [Example 60, 1-(cis-3-methoxycyclobutyl)-3-methyl-8-[6-[4-(methylamino)-1-piperidyl]-3-pyridyl]imidazo[4,5-c]quinolin-2-one] | > 30000 nM | 0.502 nM
7 | CO[C@H]1C[C@@H](n2c(=O)n(C)c3cnc4cc(F)c(-c5ccc(N6CCC(N(C)C)CC6)nc5)cc4c32)C1 [Example 42, 8-[6-[4-(dimethylamino)-1-piperidyl]-3-pyridyl]-7-fluoro-1-(cis-3-methoxycyclobutyl)-3-methyl-imidazo[4,5-c]quinolin-2-one] | > 30000 nM | 1.54 nM
8 | CN(C)[C@@H]1CCN(c2ccc(-c3ccc4ncc5c(c4c3)n([C@@H]3CCCOC3)c(=O)n5C)cn2)C1 [Example 7] | 1420 nM | 0.626 nM
